Key:
[1] = (§1) Pharmacokinetic parameters for Carvedilol following oral administration of Carvedilol tablets.; type: ADME, organism-based; conditions: human, in vivo, dosed compound id 39, dosed compound name CARVEDILOL, tissue Plasma
[2] = system: Homo sapiens; assay: as §1; type: ADME, organism-based; conditions: in vivo, po, dosed compound id 39, dosed compound name CARVEDILOL, tissue Plasma

half-life ([1]; gender male and female, read-out: t1/2(app)): 5 to 9 h
CL/F [1]: 500 to 700 mL/min
bioavailability [1]: 25 to 35%
t1/2(app) ([2]; gender male and female): 7 to 11 h
Vss [2]: 115 L
Compound: COc1ccccc1OCCNCC(O)COc1cccc2[nH]c3ccccc3c12 (stereo not given) [CARVEDILOL]

Source: ChEMBL document CHEMBL3832082, “DailyMed|setid=a9a12198-b016-42ae-b9dc-d98fead7b79e | CARVEDILOL- carvedilol tablet, film coated|REMEDYREPACK INC”
